Test results published in PubChem BioAssay (NCI).
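Growth conditions: 96-well plates. Treatment: test compound, 48 hours, 5 concentrations. Analysis: linear interpolation between bracketing concentrations; unreached endpoints set to highest concentration. GI50 = concentration required for 50% inhibition of growth. At the TGI there is no net growth.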

What was measured:
Assay in all cases: DTP human tumour cell line panel, 48 h
BT-549 breast = test system: BT-549 breast
NCI/ADR-RES ovarian = test system: NCI/ADR-RES ovarian
SW-620 colon = test system: SW-620 colon
PC-3 prostate = test system: PC-3 prostate
SK-MEL-2 melanoma = test system: SK-MEL-2 melanoma
U251 CNS = test system: U251 CNS
M14 melanoma = test system: M14 melanoma
MCF7 breast = test system: MCF7 breast
ACHN renal = test system: ACHN renal
NCI-H226 lung = test system: NCI-H226 lung

Row | Structure (SMILES) | TGI (BT-549 breast) [µM] | TGI (NCI/ADR-RES ovarian) [µM] | TGI (SW-620 colon) [µM] | TGI (PC-3 prostate) [µM] | TGI (SK-MEL-2 melanoma) [µM] | TGI (U251 CNS) [µM] | TGI (M14 melanoma) [µM] | TGI (MCF7 breast) [µM] | TGI (ACHN renal) [µM] | TGI (NCI-H226 lung) [µM] | GI50 (BT-549 breast) [µM] | GI50 (PC-3 prostate) [µM] | GI50 (SK-MEL-2 melanoma) [µM] | GI50 (NCI-H226 lung) [µM] | GI50 (M14 melanoma) [µM] | GI50 (NCI/ADR-RES ovarian) [µM] | GI50 (SW-620 colon) [µM] | GI50 (U251 CNS) [µM] | GI50 (MCF7 breast) [µM]
1 | Cc1ccc(C(C)C)c(OCC(=O)N/N=C/c2c[nH]c3ccc(Br)cc23)c1 | 18.7 | 6.6 | 18.6 | 4.43 | 7.22 | 11.1 | 4.63 | 11.2 | 16.5 | – | – | – | – | – | – | – | – | – | –
2 | O=C1C(c2c(O)[nH]c3ccc(Cl)cc23)=Nc2ccccc21 | > 100 | > 100 | > 100 | > 28 | > 26.3 | 17.6 | > 100 | > 22 | 20.3 | 37 | – | – | – | – | – | – | – | – | –
3 | Cc1cccc2c1Sc1ccccc1C2NC(=O)CN(C)C (stereo not drawn) | – | – | > 100 | – | – | > 100 | > 100 | – | > 100 | > 100 | – | – | – | – | – | – | – | – | –
4 | CN(C)c1cccc(OC(=O)NCCCl)c1 | – | > 100 | > 100 | – | > 100 | > 100 | – | > 100 | – | > 100 | – | – | – | – | – | – | – | – | –
5 | O=C(Sc1n[nH]c(=O)[nH]c1=O)c1cccc2nc3ccccc3nc12 | > 100 | > 100 | > 100 | – | > 100 | > 100 | > 100 | > 100 | > 100 | > 100 | – | – | – | – | – | – | – | – | –
6 | CSCC(CO)NC(=O)/C=C/c1c(C)[nH]c(=O)[nH]c1=O (stereo not drawn) | – | > 875 | > 492 | – | > 875 | > 875 | – | > 609 | – | > 875 | – | – | – | – | – | – | – | – | –
7 | O=S(O)CCCSSSCCCS(=O)O | – | – | – | – | > 100 | > 100 | > 100 | – | > 100 | – | – | – | – | – | – | – | – | – | –
8 | N#C/C(=C\c1ccc([N+](=O)[O-])o1)c1n[nH]c(Cc2ccccc2)n1 | 8.46 | 12.8 | > 100 | 7.43 | 4.34 | 10.7 | 3.92 | 7.05 | 4.11 | 6.04 | – | – | – | – | – | – | – | – | –
9 | c1csc(-c2ccc(CNc3c4ccccc4nc4ccccc34)cc2)c1 | 14.1 | – | – | 2.47 | 4.79 | – | 3.4 | – | – | 38.6 | 3.87 | 1.08 | 2.11 | 5.57 | 1.75 | – | – | – | –
10 | NNC(=O)c1cc([N+](=O)[O-])ccc1NC(=O)C12CC3CC(CC(C3)C1)C2 | > 100 | 49.2 | > 100 | > 100 | – | 37.7 | > 100 | > 100 | 36.1 | 40.3 | – | – | – | – | – | – | – | – | –
11 | CC(=O)OC1CC(OC2C(O)CC(OC3C(O)CC(OC4CCC5(C)C(CCC6C5CCC5(C)C(C7=CC(=O)OC7)CCC65O)C4)OC3C)OC2C)OC(C)C1OC1OC(CO)C(O)C(O)C1O (stereo not drawn) | 0.0984 | 0.0581 | 0.148 | 0.159 | 0.245 | 0.137 | 0.188 | 0.536 | 0.0942 | 0.241 | – | – | – | – | – | – | – | – | –
12 | COC(=O)c1sc2c(c1C(=O)OC)C(=NC(C)(C)C)SC2=NC(C)(C)C | 35.4 | 42.7 | 35.4 | 37 | 33.1 | 32.3 | 32.2 | 33.1 | 33.1 | 34.9 | – | – | – | – | – | – | – | – | –
13 | COc1cc(NCCC(=O)O)c2ncccc2c1 | > 100 | > 100 | > 100 | > 100 | > 100 | > 100 | > 100 | – | > 100 | > 100 | – | – | – | – | – | – | – | – | –
14 | c1ccc2c(c1)SP1Sc3ccccc3P21 (stereo not drawn) | – | > 100 | > 100 | – | > 100 | > 100 | – | > 100 | – | > 66.6 | – | – | – | – | – | – | – | – | –
15 | CN(c1ccccc1)c1nc(=[N+]2CCCC2)ss1 | – | – | > 100 | – | > 100 | > 100 | > 100 | – | > 100 | > 100 | – | – | – | – | – | – | – | – | –
16 | CO/C=C1\OC(=O)C=C1OC | – | > 100 | > 100 | – | > 100 | > 31.6 | – | > 100 | – | > 100 | – | – | – | – | – | – | – | – | –
17 | Clc1cc(OCc2nn3c(Cc4ccccc4)nnc3s2)c(Cl)cc1OCc1nn2c(Cc3ccccc3)nnc2s1 | 95.9 | > 100 | > 100 | > 100 | > 100 | > 100 | > 100 | > 100 | > 100 | > 100 | – | – | – | – | – | – | – | – | –
18 | CC[C@@H]([C@H](O)c1ccccc1Cl)[N+](=O)[O-] | > 100 | > 100 | > 100 | > 100 | > 100 | > 100 | > 100 | > 100 | > 100 | > 100 | – | – | – | – | – | – | – | – | –
19 | Nc1nc(Cl)c(N)c(NCC2(CO)CCC(CCc3ccccc3)C2)n1 (stereo not drawn) | 32.6 | > 63.1 | 27.2 | 49.7 | 31.7 | 29 | 27.4 | 34.9 | > 68.9 | 42.5 | – | – | – | – | – | – | – | – | –
20 | Cc1ccc(Nc2nc(=O)c3c([nH]c4ccccc43)s2)cc1 | 33.5 | 29.9 | 24.3 | 28.3 | 31.3 | 25.5 | 18.1 | – | 35.4 | – | – | – | – | – | – | – | – | – | –
21 | c1ccc2c(c1)SCCc1cn[nH]c1-2 | – | > 100 | > 100 | – | > 100 | > 100 | – | > 100 | – | > 100 | – | – | – | – | – | – | – | – | –
22 | COCCNCc1ccc(-c2cc3nccc(Oc4ccc(NC(=O)C5(C(=O)Nc6ccc(F)cc6)CC5)cc4F)c3s2)nc1 | – | 4.25 | 3.27 | 5 | 3.6 | 3.79 | – | 3.58 | – | 4.73 | – | 1.81 | 1.82 | 1.89 | – | 1.74 | 1.26 | 1.89 | 1.22
23 | c1ccc(C2=NN=C3C(c4ccccc4)=Nc4ccccc4N3C2)cc1 | > 100 | > 100 | > 100 | > 100 | > 82.2 | > 100 | 50.4 | > 77.4 | > 100 | > 70.2 | – | – | – | – | – | – | – | – | –
